Like-named read-outs stand apart in the source and are kept apart here.
Legend:
[1] = system: stationary-phase promastigotes of L. amazonensis; assay: Antileishmanial activity: inhibition of promastigote viability (MTT); format: cell-based, Leishmania amazonensis
Description: Cell viability was assessed by measuring the cleavage of 2 mg/mL of MTT [3-(4.5-dimethylthiazol-2-yl)-2.5-diphenyl tetrazolium bromide] (Sigma). Absorbances were measured by using a multiwell scanning spectrophotometer (LABTRADE, model 660) at a wavelength of 570 nm. Amphotericin B (1 μM) was used as a positive control. The concentration of the products needed to inhibit 50% of the Leishmania viability (IC50) was determined by applying the sigmoidal regression of the concentration-response curves, using different concentrations of the compounds.

[2] = system: O+ human red blood cells; assay: Hemolytic activity; format: cell-based
Description: (§1) Cell viability was assessed by the MTT assay, and amphotericin B was used as a control. The selectivity index (SI) of the products was calculated by determining the ratio between IC50 and CC50. The hemolytic activity was investigated by incubating the products, in the same concentrations used for cytotoxicity evaluation, with a 5% red blood cell (human O^+) suspension for 1 h at 37°C. Briefly, the erythrocyte suspension was centrifuged (1000 ×g for 10 min), and cell lysis was determined spectrophotometrically (570 nm), as described [24]. The absence of (blank) or 100% presence of hemolysis (positive control) was determined by replacing the products for an equal volume of PBS or distilled water, respectively. The results were determined by the percentage of hemolysis when compared with the negative and positive controls. Data shown are representative of four independent experiments, performed in triplicate, which presented similar results.

[3] = system: Leishmania amazonensis invasion of murine macrophages; assay: Inhibition of infection in phagocytic cells (pre-treated promastigotes); format: cell-based; conditions: for reductions in infectivity of parasites after treatment: parasites preincubated 4 h at 24°C, versus about 87% infected macrophages with untreated parasites, concentration not given; for number of amastigotes per cell / Percentage of infected macrophages after treatment: 4 h at 24°C; for number of amastigotes per cell: untreated 8.4; for Percentage of infected macrophages after treatment: untreated 87.0
Description: The inhibitory effect of quercetin 3-O-methyl ether and strychnobiflavone on the Leishmania invasion of macrophages was evaluated using promastigotes of L. amazonensis. Parasites (1 × 10^6 cells) were preincubated with different concentrations of quercetin 3-O-methyl ether (0, 70, 140, or 280 μM) or strychnobiflavone (0, 40, 80, or 160 μM) for 4 h at 24°C. […] After incubation, parasites were washed three times with RPMI 1640 medium, quantified, and incubated for 24 h with murine macrophages, using a ratio of 10 parasites per 1 macrophage. After, cells were washed, set, and stained to determine the percentage of infected macrophages by counting 200 cells in triplicate.

[4] = system: L. amazonensis in infected murine macrophages; assay: Treatment of infected macrophages; format: cell-based, Leishmania amazonensis; conditions: for number of amastigotes per cell: untreated 8.4; for Percentage of infected macrophages after treatment: untreated 87.0
Description: Murine macrophages (5 × 10^5 cells) were plated on round glass coverslips inside the wells of a 24-well culture plate (Nunc) in an RPMI 1640 medium supplemented with 20% FBS, 2 mM L-glutamine, 200 U/mL penicillin, and 100 μg/mL streptomycin, at pH 7.4. After 24 h of incubation at 37°C in 5% CO2, stationary-phase promastigotes of L. amazonensis were added to the wells (5 × 10^6 cells), and the cultures were incubated for 24 h at 37°C in 5% CO2. A previous titration curve was performed to determine the minimum time incubation of parasites with the macrophages, in order to obtain the maximum of infection into the host cells (data not shown). Next, free parasites were removed by extensive washing with an RPMI 1640 medium, and infected macrophages were quantified and treated for 48 h with quercetin 3-O-methyl ether (0, 70, 140, or 280 μM) or strychnobiflavone (0, 40, 80 or 160 μM) for 48 h at […] in 5% CO2. Cells were washed in RPMI 1640 and incubated with 4% paraformaldehyde for 15 min, at which time they were treated with 70% ethanol in an ice bath for 4 h and again washed three times with sterile PBS. Amphotericin B was used as a control. The percentage of the inhibition of Leishmania intra-macrophage viability was determined by counting 200 cells in triplicate.

[5] = system: murine macrophages
Description: as §1

[6] = system: murine macrophages; assay: Cytotoxicity assay on macrophages (MTT); conditions: for SI, Selectivity Index (ratio between CC50 and IC50): murine macrophages vs L. amazonensis promastigotes
Description: as §1

[7] = Cytotoxicity assay on macrophages (MTT); conditions: BALB/c, mouse, murine macrophages
Description: as §1

[8] = Leishmania amazonensis, 48 h, stationary-phase promastigotes, 48 h at 24°C, MTT, read-out: IC50 (inhibitory concentration of 50% of promastigotes of L. amazonensis)
[9] = promastigotes pre-treated with 70 μM
[10] = promastigotes pre-treated with 140 μM
[11] = promastigotes pre-treated with 280 μM
[12] = infected macrophages treated with 70 μM for 48 h
[13] = infected macrophages treated with 140 μM for 48 h
[14] = infected macrophages treated with 280 μM for 48 h
[15] = promastigotes pre-treated with 40 μM
[16] = promastigotes pre-treated with 80 μM
[17] = promastigotes pre-treated with 160 μM
[18] = infected macrophages treated with 40 μM for 48 h
[19] = infected macrophages treated with 80 μM for 48 h
[20] = infected macrophages treated with 160 μM for 48 h

COc1c(-c2ccc(O)c(O)c2)oc2cc(O)cc(O)c2c1=O [Quercetin 3-O-methyl ether, quercetin 3-O-methyl ether]
IC50 [1, 8]: 8.08 µM
IC50 ([1]; stationary-phase promastigotes, 48 h at 24°C, MTT, listed as Quercetin 3-methyl ether, read-out: IC50 (inhibitory concentration of 50% of promastigotes of L. amazonensis)): 8.1 ± 1.5 µM
hemolytic activity / damage to human erythrocytes (in words) [2]: no significant damage
RBC50 (50% of human red blood cell lysis) ([2]; human, 1 h): 155.0 ± 33.2 µM
reductions in infectivity of parasites after treatment [3]: ~47%
number of amastigotes per cell [3, 9]: 4.5
Percentage of infected macrophages after treatment [3, 9]: 67.8%
number of amastigotes per cell [3, 10]: 3.9
Percentage of infected macrophages after treatment [3, 10]: 61.9%
number of amastigotes per cell [3, 11]: 2.4
Percentage of infected macrophages after treatment [3, 11]: 46.1%
number of amastigotes per cell [4, 12]: 5.6
Percentage of infected macrophages after treatment [4, 12]: 72.4%
number of amastigotes per cell [4, 13]: 4.4
Percentage of infected macrophages after treatment [4, 13]: 68.0%
number of amastigotes per cell [4, 14]: 1.7
Percentage of infected macrophages after treatment [4, 14]: 46.3%
toxicity in murine macrophages (in words) [5]: no significant toxicity
SI, Selectivity Index (ratio between CC50 and IC50) [6]: 24.62
SI, Selectivity Index (ratio between CC50 and IC50) ([6]; listed as Quercetin 3-methyl ether): 24.6

COc1c(-c2ccc(O)c(O)c2-c2c(O)cc(O)c3c(=O)c(OC)c(-c4ccc(O)c(O)c4)oc23)oc2cc(O)cc(O)c2c1=O [Strychnobiflavone, strychnobiflavone]
IC50 ([1]; Leishmania amazonensis, 48 h, read-out: IC50 (inhibitory concentration of 50% of promastigotes of L. amazonensis), stationary-phase promastigotes, 48 h at 24°C, MTT): 3.16 µM
IC50 ([1]; stationary-phase promastigotes, 48 h at 24°C, MTT, read-out: IC50 (inhibitory concentration of 50% of promastigotes of L. amazonensis)): 3.2 ± 0.2 µM
RBC50 (50% of human red blood cell lysis) ([2]; 5% human O+ red blood cell suspension, 1 h at 37°C): 209.6 ± 2.5 µM
hemolytic activity / damage to human erythrocytes (in words) ([2]; O+ human red blood cells): no significant damage
reductions in infectivity of parasites after treatment [3]: ~72.6%
number of amastigotes per cell [3, 15]: 3.0
Percentage of infected macrophages after treatment [3, 15]: 53.0%
number of amastigotes per cell [3, 16]: 2.2
Percentage of infected macrophages after treatment [3, 16]: 47.8%
number of amastigotes per cell [3, 17]: 1.2
Percentage of infected macrophages after treatment [3, 17]: 23.8%
number of amastigotes per cell [4, 18]: 1.5
Percentage of infected macrophages after treatment [4, 18]: 37.9%
number of amastigotes per cell [4, 19]: 1.3
Percentage of infected macrophages after treatment [4, 19]: 26.3%
number of amastigotes per cell [4, 20]: 0.4
Percentage of infected macrophages after treatment [4, 20]: 9.6%
CC50 at 48 h [7]: 125 ± 4.5 µM
toxicity in murine macrophages (in words) ([6]; in vitro, after incubation with the products): no significant toxicity
SI, Selectivity Index (ratio between CC50 and IC50) [6]: 39.6
SI, Selectivity Index (ratio between CC50 and IC50) ([6]; listed as strychnobiflavone): 39.55

C[C@@H]1[C@H](O)[C@@H](C)/C=C/C=C/C=C/C=C/C=C/C=C/C=C/[C@H](O[C@@H]2O[C@H](C)[C@@H](O)[C@H](N)[C@@H]2O)C[C@@H]2O[C@](O)(C[C@@H](O)C[C@@H](O)[C@H](O)CC[C@@H](O)C[C@@H](O)CC(=O)O[C@H]1C)C[C@H](O)[C@H]2C(=O)O [AmpB, amphotericin B, reference compound]
IC50 [1, 8]: 0.1 ± 0.13 µM
toxicity in murine macrophages (in words) [5]: highly cytotoxic
SI, Selectivity Index (ratio between CC50 and IC50) [6]: 9.9

From publication PMC3806161, “Strychnos pseudoquina and Its Purified Compounds Present an Effective In Vitro Antileishmanial Activity” (Evidence-based Complementary and Alternative Medicine : eCAM, 2013)
